Measurements as given in patent US5681954A, “Piperazine derivatives” (Daiichi Pharmaceutical Co., Ltd., priority 1993, dated 1997).

Legend:
[1] = molecular target: T1, Ca/Calmodulin-Dependent PDE (Bos taurus, UniProt P62157); assay: Calmodulin (CaM) inhibitory activity: inhibition of CaM-potentiated cyclic nucleotide phosphodiesterase (PDE); assay type: biochemical; conditions: CaM and PDE from bovine brain, [3H]-cGMP, 30° C., 10 minutes, pH 7.5; read-out: IC50 (concentration showing 50% inhibition of PDE activity potentiated by CaM)
T1 construct: CaM from bovine brain; from tissue; host or cells: bovine brain

[2] = system: Nitrogen-induced Hypoxia Model in Mouse; assay: Activity on Nitrogen-induced Hypoxia Model in Mouse; assay type: in vivo; conditions: 30 mg/kg, p.o., 60 minutes before nitrogen, over control group (100%)
Description: Nine to ten mice per group were each orally given […] of a test compound. After 60 minutes from the administration, each mouse was put in a 500 ml-volume transparent container having a vent hole; and nitrogen gas was introduced into the container at a rate of 5000 ml/min. The time from the start of nitrogen introduction to respiratory standstill was measured, and a rate of increase of the time over that of a control group (100%) was obtained.

Row | SMILES | IC50 [1] [µM] | Rate of Increase of Survival Time [2] [%]
1 | COc1ccc(Cn2nc(CCN3CCN(c4cccc(Cl)c4C)CC3)c3cc(OC)c(OC)cc32)cc1OC [Example 17, 3-(2-(4-(3-Chloro-2-methylphenyl)-1-piperazinyl)ethyl)-5,6-dimethoxy-1-(3,4-dimethoxybenzyl)-1H-indazole] | 3.1 | 19.2
2 | COc1cc2c(CCN3CCN(c4cccc(Cl)c4C)CC3)nn(Cc3c[nH]cn3)c2cc1OC [Example 23, 3-(2-(4-(3-Chloro-2-methylphenyl)-1-piperazinyl)ethyl)-5,6-dimethoxy-1-(4-imidazolylmethyl)-1H-indazole] | 5.5 | 
3 | COc1cc2[nH]nc(CCN3CCN(c4cccc(Cl)c4C)CC3)c2cc1OC [Example 81] | 9.4 | 
